This is an account of results in patent publication US6841549B1, “Condensed imidazole compounds and a therapeutic agent for diabetes mellitus” (Eisai Co., Ltd., priority 1999, dated 2005).

Test [1] concerns the target T1, adenosine A2a receptor (Homo sapiens, UniProt P29274).
T1 construct: purchased Receptor Biology Inc
The test is described as follows: Adenosine A2a receptor binding assay (3H-CGS21680). Conditions: 3H-CGS21680 binding, membrane over-expressing A2a receptor, Cheng-Prusoff; read-out: inhibition constant (Ki value). On the procedure: A membrane specimen prepared by over-expression of adenosine A2a receptor was purchased from Receptor Biology Inc., and used to carry out adenosine A2a receptor binding assays. The purchased membrane specimen was suspended at a concentration of 22.2 μg/ml inan incubation buffer (20 mM HEPES, 10 mm MgCl2 and 100 mM NaCl, pH 7.4). To 0.45 ml of this membrane specimen were added 0.25ml of tritium-labeled^3H-CGS21680 (500 nM; 30 Ci/mmol) and 0.025 ml of the test compound. The solution of the test compound was prepared by dissolving the compound at a concentration of 20 mM in DMSO and then successively diluting the solution 10-fold with the incubation buffer. […] Thereafter, the glass fiber filter was transferred to a vial bottle, a scintillator was added thereto, and the radioactivity on the filter was measured by a liquid scintillation counter. The rate of inhibition of (^3H-CGS21680) binding to the A2a receptor by the test compound was calculated using the following equation, and from this rate of inhibition, IC50 was calculated. […]
The total binding amount is ^3H-CGS21680 binding radioactivity in the absence of the test compound. The non-specific binding amount is ^3H-CGS21680 binding radioactivity in the presence of […] of RPIA. The binding amount in the presence of drug is ^3H-CGS21680 binding radioactivity in the presence of the test compound of various concentrations. […]

Test [2] concerns the target T2, Human adenosine A2b receptor (Homo sapiens, UniProt P29275).
T2 construct: expressed in transfected cells; host or cells: CHOK1 cells
T2 sequence (P29275 1-332): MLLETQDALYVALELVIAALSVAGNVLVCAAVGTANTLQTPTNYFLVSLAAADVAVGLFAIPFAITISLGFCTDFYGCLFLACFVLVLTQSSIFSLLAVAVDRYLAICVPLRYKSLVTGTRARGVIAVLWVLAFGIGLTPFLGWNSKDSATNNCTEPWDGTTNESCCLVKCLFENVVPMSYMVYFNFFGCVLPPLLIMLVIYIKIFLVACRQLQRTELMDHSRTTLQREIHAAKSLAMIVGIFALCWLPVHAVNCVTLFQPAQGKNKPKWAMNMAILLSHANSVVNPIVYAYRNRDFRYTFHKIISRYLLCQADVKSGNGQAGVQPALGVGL
The test is described as follows: Inhibition of NECA-stimulated cAMP production in receptor-expressing CHOK1 cells. The settings on record: CHOK1 cells over-expressing human A2b receptor, NECA 30 nM. The format is cell-based. On the procedure:
Human adenosine A2b receptor cDNA was over-expressed in CHOK1 cells. The cells were uniformly placed on a 24-well plate at a density of 1.5×10^5cells/well, incubated overnight and then used for the assays. Affinity of the test compound for the A2b receptor was evaluated by using, as an index, the rate of suppression of the amount of cAMP produced by stimulation of an adenosine agonist NECA (30 nM) in the presence of the test compound. Thus, the plate was washed twice with 2 ml/well of Krebs-Ringer-Bicarbonate buffer (KRB) (mM) (NaCl 118, KCl 4.8, KH2PO4 1.2, MgSO4 1.2, CaCl2 3.4, HEPES 10, NaHCO3 25, pH 7.4) and then pre-incubated (0.5 ml/well) for 30 minutes. Thereafter, a mixed solution containing 600 μM Ro-20-1724 (phosphodiesterase inhibitor), 180 nM NECA, and a test compound at a concentration 6-times higher than in the reaction solution was added in an amount of […]. After 15 minutes, the reaction was stopped by replacing the reaction solution by 0.1 N HCl (300 μl/well). Measurement of cAMP was carried out using an Amersham cAMP EIA Kit.
The rate of inhibition of NECA-stimulated cAMP production by the test compound was calculated using the following equation: Rate of Inhibition (%)=[1−{(cAMP amount in the presence of NECA and test compound-Basal cAMP amount)/(cAMP amount stimulated only by NECA−Basal cAMP amount)}]×100.
IC50 was calculated from the rate of inhibition.
In general terms: Changes in cAMP serve as a functional read-out for many G protein-coupled receptors.

Test [3] deals with primary cultured rat hepatic cells. The test is described as follows: Inhibition of NECA-stimulated glucose production in primary cultured rat hepatic cells. Format: cell-based. The settings on record: primary cultured Wistar rat hepatic cells, NECA 0.1, 1 hour; read-out: IC50 for inhibition of NECA-stimulated glucose release. On the procedure: Hepatic cells were separated by a collagenase perfusion method from livers of male rats of Wistar strain and subjected to a primary culture in a William's Medium E containing 5% calf serum, 10^−6 M insulin and 10^−7 M dexamethasone. After 1 day, the hepatic cells were washed with a Krebs-Ringer Bicarbonate buffer (mM) (NaCl 118, KCl 4.8, KH2PO4 1.2, MgSO4 1.2, CaCl2 3.4, HEPES 10, NaHCO3 25) pH 7.4 (KRB) containing 10 mM HEPES and 0.1% bovine serum albumin and KRB was added thereto, then incubated at 37° C. After 30 minutes, NECA (N-ethylcarboxamide adenosine) (final concentration: […]) and a test compound were added thereto at the same time, the mixture was incubated for additional one hour, and the amount of glucose released into the incubation medium was measured.

The subject of test [4] is spontaneously diabetic mice (KK-Ay/Ta Jcl). The test is described as follows: Action on hyperglycemia in spontaneously diabetic mice (single administration). Conditions: male KK-Ay/Ta Jcl mice, 10 mg/kg oral, p < 0.01 vs. control (72.5 ± 3.7). The format is in vivo. On the procedure:
Animals: Seven male KK-A^y/Ta Jcl mice for each group (purchased from Nippon Clair) Preparation and Administration of Test Compound: A test compound in a dose as shown in Table 1 was suspended in 0.5% aqueous methyl cellulose solution and was orally administered in a volume of 10 ml/kg. Collection of Blood Samples and Determination of Blood Sugar: Blood was collected from tail veins just before administration of the test compound and also 5 hours after the administration and blood sugar was determined. Method: Tail vein of a mouse was injured by a razor without anesthetization to bleed slightly. The blood (15 μl) was collected and immediately mixed with 135 μl of 0.6 M perchloric acid. Glucose in the supernatant separated by centrifugation (at 1500 g for10 minutes at 4° C. usingacooling centrifuge GS-6KR from Beckmann) was determined by Glucose CII Test Wako (Wako Pure Chemicals). The results are shown in terms of “(% ratio of blood sugar 5 hours after the administration to the blood sugar before the administration)±(standard error)”. The data were subjected to one-way layout analysis of variance and then subjected to multiple comparison of Dunnett type. Difference with p<0.05 was deemed significant.

Where a name gives a salt, the structure may show the parent alone.

T1 sequence (P29274 whole entry): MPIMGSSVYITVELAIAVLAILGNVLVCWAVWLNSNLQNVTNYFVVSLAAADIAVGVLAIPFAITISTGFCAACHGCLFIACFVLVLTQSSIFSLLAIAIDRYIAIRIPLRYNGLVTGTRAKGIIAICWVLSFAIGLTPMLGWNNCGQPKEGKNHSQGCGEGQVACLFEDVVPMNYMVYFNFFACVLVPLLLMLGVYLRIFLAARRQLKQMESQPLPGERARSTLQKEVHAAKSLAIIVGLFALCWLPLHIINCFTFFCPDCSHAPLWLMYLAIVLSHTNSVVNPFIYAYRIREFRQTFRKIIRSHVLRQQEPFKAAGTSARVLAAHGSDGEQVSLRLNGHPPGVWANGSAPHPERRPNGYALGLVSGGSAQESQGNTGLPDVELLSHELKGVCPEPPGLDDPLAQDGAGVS

Usually Ki stands for a measure of affinity in units of concentration, obtained from inhibition or displacement. What is called IC50 is the concentration needed to halve the response being measured. `Cl.Cn1cc(-n2c(-c3cccc(F)c3)nc3c(N)ncnc32)ccc1=O` [Example 5, 5-[6-Amino-8-(3-fluorophenyl)-9H-9-purinyl]-1-methyl-1,2-dihydro-2-pyridinone hdrochloride]: the Ki in test [1] stood at 3.2 nM. Further, the figures for the IC50 in test [2] and in test [3] were 11 nM and 7.6 nM, respectively. For the same molecule, in test [4], the “% ratio of blood sugar 5 hours after the administration to the blood sugar before the administration ± standard error” value is on record as 47.3 ± 7.2%.
In the case of `C=CCn1c(-c2cccc(F)c2)nc2c(N)nc(C#CC3(O)CCC3)nc21` [Example 20, 1-{2-[9-Allyl-6-amino-8-(3-fIuorophenyl)-9H-2-purinyl]-1-ethynyl]}-1-cyclobutanol hydrochloride], the Ki in test [1] came to 9.6 nM. In addition, in test [3], the IC50 came out at 8.4 nM.
